Results as given in patent publication US20110081315A1, “NOVEL MACROCYCLIC INHIBITORS OF HEPATITIS C VIRUS REPLICATION” (INTERMUNE, INC., priority 2009, published 2011).
pEC50, pIC50: −log10 of the molar value. Read-outs that look alike come from different tables or passages of the source.

What was measured:
[1] = system: hepatitis C replicon; assay: hepatitis C replicon EC50 assay; format: cell-based; conditions: Hepatitis C virus
Method in brief: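 Enzyme IC50: NS3/NS4 complex, 23° C.; buffer Tris-HCl 50 mM pH 7.5 / glycerol 15% / DTT 10 mM / LDAO 0.6 mM / NS4A peptide 25 μM. Cellular: HCV replicon EC50.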

[2] = molecular target: NS3/NS4 complexes (Hepatitis C virus genotype 1a, UniProt P27958); assay: NS3/NS4 inhibition assay (IC50); format: biochemical; conditions: NS3/NS4 activity; 23° C., 25 μM NS4A peptide
Method in brief: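 Read-outs are IC50 for inhibition of the NS3/NS4 complex and EC50 in an HCV replicon system. Biochemical runs use 23° C. and a 50 mM Tris-HCl (pH 7.5) buffer with 15% glycerol, 10 mM DTT, 0.6 mM LDAO and 25 μM NS4A peptide.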

[3] = hepatitis C replicon, read-out: EC50

Sequence of NS3/NS4 complexes (P27958 1027-1657, one chain of several): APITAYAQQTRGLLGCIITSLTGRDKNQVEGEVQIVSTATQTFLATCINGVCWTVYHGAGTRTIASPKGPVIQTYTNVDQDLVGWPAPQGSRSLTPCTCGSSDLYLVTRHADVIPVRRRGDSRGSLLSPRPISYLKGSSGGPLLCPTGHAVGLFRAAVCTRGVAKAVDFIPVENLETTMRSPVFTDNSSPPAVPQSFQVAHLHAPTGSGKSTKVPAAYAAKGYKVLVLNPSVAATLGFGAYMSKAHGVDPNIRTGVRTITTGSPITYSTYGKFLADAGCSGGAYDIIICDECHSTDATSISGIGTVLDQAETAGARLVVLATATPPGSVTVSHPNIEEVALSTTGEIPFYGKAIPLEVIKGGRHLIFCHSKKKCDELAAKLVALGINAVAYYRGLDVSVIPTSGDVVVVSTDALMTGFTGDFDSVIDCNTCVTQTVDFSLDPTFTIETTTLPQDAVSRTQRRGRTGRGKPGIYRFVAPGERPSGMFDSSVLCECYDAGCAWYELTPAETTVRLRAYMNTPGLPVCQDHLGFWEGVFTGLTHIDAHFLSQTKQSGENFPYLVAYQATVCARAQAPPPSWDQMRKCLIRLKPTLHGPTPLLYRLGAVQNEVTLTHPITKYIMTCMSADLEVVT

Row | SMILES | pEC50 [1] | pIC50 [2] | pEC50 [1, 3]
1 | CC(C)n1c(O[C@@H]2C[C@H]3C(=O)N[C@]4(C(=O)NS(=O)(=O)N(C)C)C[C@H]4/C=C\CCCCC[C@H](NC(=O)OC(C)(C)C)C(=O)N3C2)nc2c(C(=O)Nc3ccccc3)cccc21 [Compound 282] | 7.00 to 8.00 | > 8.00 | 
2 | CC(C)n1c(O[C@@H]2C[C@H]3C(=O)N[C@]4(C(=O)NS(=O)(=O)N(C)C)C[C@H]4/C=C\CCCCC[C@H](NC(=O)OC(C)(C)C)C(=O)N3C2)nc2c(C(=O)NCc3ccccc3)cccc21 [Compound 283] |  | > 8.00 | > 8.00
3 | CC(C)n1c(O[C@@H]2C[C@H]3C(=O)N[C@]4(C(=O)NS(=O)(=O)N(C)C)C[C@H]4/C=C\CCCCC[C@H](NC(=O)OC(C)(C)C)C(=O)N3C2)nc2c(C(=O)NCCc3ccccc3)cccc21 [Compound 284] | > 8.00 | > 8.00 | 
4 | COc1cccc2c1nc(O[C@@H]1C[C@H]3C(=O)N[C@]4(C(=O)NS(=O)(=O)C5(C)CC5)C[C@H]4/C=C\CCCCC[C@H](Nc4ccccc4)C(=O)N3C1)n2C(C)C [Compound 285] |  | > 8.00 | > 8.00
5 | COc1cccc2c1nc(O[C@@H]1C[C@H]3C(=O)N[C@]4(C(=O)NS(=O)(=O)N(C)C)C[C@H]4/C=C\CCCCC[C@H](NC(=O)OC(C)(C)C)C(=O)N3C1)n2C(C)C [Compound 286] |  | > 8.00 | > 8.00
6 | CC(C)n1c(O[C@@H]2C[C@H]3C(=O)N[C@]4(C(=O)NS(=O)(=O)C5(C)CC5)C[C@H]4/C=C\CCCCC[C@H](Nc4ccccc4)C(=O)N3C2)nc2c(NC(=O)Nc3ccccc3)cccc21 [Compound 287] | 7.00 to 8.00 | > 8.00 | 
7 | CC(C)c1cccc2c1nc(O[C@@H]1C[C@H]3C(=O)N[C@]4(C(=O)NS(=O)(=O)N(C)C)C[C@H]4/C=C\CCCCC[C@H](NC(=O)OC(C)(C)C)C(=O)N3C1)n2C(C)C [Compound 288] |  | > 8.00 | > 8.00
8 | CC(C)c1ccc2c(c1)nc(O[C@@H]1C[C@H]3C(=O)N[C@]4(C(=O)NS(=O)(=O)N(C)C)C[C@H]4/C=C\CCCCC[C@H](NC(=O)OC(C)(C)C)C(=O)N3C1)n2C(C)C [Compound 289] |  | > 8.00 | 7.00 to 8.00
9 | CC(C)c1cccc2nc(O[C@@H]3C[C@H]4C(=O)N[C@]5(C(=O)NS(=O)(=O)N(C)C)C[C@H]5/C=C\CCCCC[C@H](NC(=O)OC(C)(C)C)C(=O)N4C3)n(C(C)C)c12 [Compound 290] |  | > 8.00 | 7.00 to 8.00
10 | CC(C)n1c(O[C@@H]2C[C@H]3C(=O)N[C@]4(C(=O)NS(=O)(=O)N(C)C)C[C@H]4/C=C\CCCCC[C@H](NC(=O)OC(C)(C)C)C(=O)N3C2)nc2c(C(F)(F)F)cccc21 [Compound 291] |  | > 8.00 | > 8.00
11 | CCc1csc(-c2cccc3c2nc(O[C@@H]2C[C@H]4C(=O)N[C@]5(C(=O)NS(=O)(=O)N(C)C)C[C@H]5/C=C\CCCCC[C@H](NC(=O)OC(C)(C)C)C(=O)N4C2)n3C(C)C)n1 [Compound 292] |  | > 8.00 | > 8.00
12 | CC(C)n1c(O[C@@H]2C[C@H]3C(=O)N[C@]4(C(=O)NS(=O)(=O)N(C)C)C[C@H]4/C=C\CCCCC[C@H](NC(=O)OC(C)(C)C)C(=O)N3C2)nc2c(-c3nc(C4CCCC4)cs3)cccc21 [Compound 293] |  | > 8.00 | 7.00 to 8.00
13 | CC(C)(C)OC(=O)N[C@H]1CCCCC/C=C\[C@@H]2C[C@@]2(C(=O)NS(=O)(=O)C2(C)CC2)NC(=O)[C@@H]2C[C@@H](Oc3ccc4c(c3)ncn4-c3ccccc3)CN2C1=O [Compound 294] |  | > 8.00 | < 7.00
14 | Cn1cnc2cc(O[C@@H]3C[C@H]4C(=O)N[C@]5(C(=O)NS(=O)(=O)C6(C)CC6)C[C@H]5/C=C\CCCCC[C@H](NC(=O)OC(C)(C)C)C(=O)N4C3)ccc21 [Compound 295] |  | > 8.00 | < 7.00
15 | Cn1cnc2ccc(O[C@@H]3C[C@H]4C(=O)N[C@]5(C(=O)NS(=O)(=O)C6(C)CC6)C[C@H]5/C=C\CCCCC[C@H](NC(=O)OC(C)(C)C)C(=O)N4C3)cc21 [Compound 296] |  | > 8.00 | < 7.00
16 | CC(C)n1cnc2cc(O[C@@H]3C[C@H]4C(=O)N[C@]5(C(=O)NS(=O)(=O)C6(C)CC6)C[C@H]5/C=C\CCCCC[C@H](NC(=O)OC(C)(C)C)C(=O)N4C3)ccc21 [Compound 297] |  | > 8.00 | < 7.00
17 | CCn1cnc2ccc(O[C@@H]3C[C@H]4C(=O)N[C@]5(C(=O)NS(=O)(=O)C6(C)CC6)C[C@H]5/C=C\CCCCC[C@H](NC(=O)OC(C)(C)C)C(=O)N4C3)cc21 [Compound 298] |  | > 8.00 | < 7.00
18 | CC(C)(C)OC(=O)N[C@H]1CCCCC/C=C\[C@@H]2C[C@@]2(C(=O)NS(=O)(=O)C2(C)CC2)NC(=O)[C@@H]2C[C@@H](Oc3ccc4ncn(-c5ccccc5)c4c3)CN2C1=O [Compound 299] |  | > 8.00 | 7.00 to 8.00
19 | CN(C)S(=O)(=O)NC(=O)[C@@]12C[C@H]1/C=C\CCCCC[C@H](NC(=O)OC(C)(C)C)C(=O)N1C[C@H](Oc3cnc4ccccc4n3)C[C@H]1C(=O)N2 [Compound 301] |  | > 8.00 | 7.00 to 8.00

Row | SMILES | pEC50 [1] | pIC50 [2] | pEC50 [1, 3]
20 | CCc1nc2ccccc2nc1O[C@@H]1C[C@H]2C(=O)N[C@]3(C(=O)NS(=O)(=O)N(C)C)C[C@H]3/C=C\CCCCC[C@H](NC(=O)OC(C)(C)C)C(=O)N2C1 [Compound 302] |  | > 8.00 | > 8.00
21 | CN(C)S(=O)(=O)NC(=O)[C@@]12C[C@H]1/C=C\CCCCC[C@H](NC(=O)OC(C)(C)C)C(=O)N1C[C@H](Oc3nc4ccccc4nc3C(F)(F)F)C[C@H]1C(=O)N2 [Compound 303] |  | > 8.00 | > 8.00
22 | CN(C)S(=O)(=O)NC(=O)[C@@]12C[C@H]1/C=C\CCCCC[C@H](NC(=O)OC(C)(C)C)C(=O)N1C[C@H](Oc3nc4ccccc4nc3C(C)(C)C)C[C@H]1C(=O)N2 [Compound 304] |  | > 8.00 | 7.00 to 8.00
23 | CC(C)c1nc2ccccc2nc1O[C@@H]1C[C@H]2C(=O)N[C@]3(C(=O)NS(=O)(=O)N(C)C)C[C@H]3/C=C\CCCCC[C@H](NC(=O)OC(C)(C)C)C(=O)N2C1 [Compound 305] |  | > 8.00 | > 8.00
24 | CN(C)S(=O)(=O)NC(=O)[C@@]12C[C@H]1/C=C\CCCCC[C@H](NC(=O)OC(C)(C)C)C(=O)N1C[C@H](Oc3nc4ccccc4nc3-c3ccccc3)C[C@H]1C(=O)N2 [Compound 306] |  | > 8.00 | 7.00 to 8.00
25 | CC(C)Cc1nc2ccccc2nc1O[C@@H]1C[C@H]2C(=O)N[C@]3(C(=O)NS(=O)(=O)N(C)C)C[C@H]3/C=C\CCCCC[C@H](NC(=O)OC(C)(C)C)C(=O)N2C1 [Compound 307] |  | > 8.00 | 7.00 to 8.00
26 | CN(C)S(=O)(=O)NC(=O)[C@@]12C[C@H]1/C=C\CCCCC[C@H](NC(=O)OC(C)(C)C)C(=O)N1C[C@H](Oc3nc4ccccc4nc3-c3ccc(F)cc3)C[C@H]1C(=O)N2 [Compound 308] |  | > 8.00 | 7.00 to 8.00
27 | CCOC(=O)c1nc2ccccc2nc1O[C@@H]1C[C@H]2C(=O)N[C@]3(C(=O)NS(=O)(=O)N(C)C)C[C@H]3/C=C\CCCCC[C@H](NC(=O)OC(C)(C)C)C(=O)N2C1 [Compound 309] |  | > 8.00 | 7.00 to 8.00
28 | Cc1nc2ccccc2nc1O[C@@H]1C[C@H]2C(=O)N[C@]3(C(=O)NS(=O)(=O)C4(C)CC4)C[C@H]3/C=C\CCCCC[C@H](Nc3ccccc3)C(=O)N2C1 [Compound 310] |  | > 8.00 | 7.00 to 8.00
29 | CC(C)c1nc2ccccc2nc1O[C@@H]1C[C@H]2C(=O)N[C@]3(C(=O)NS(=O)(=O)C4(C)CC4)C[C@H]3/C=C\CCCCC[C@H](Nc3ccccc3)C(=O)N2C1 [Compound 311] |  | > 8.00 | 7.00 to 8.00
30 | CCc1nc2ccccc2nc1O[C@@H]1C[C@H]2C(=O)N[C@]3(C(=O)NS(=O)(=O)C4(C)CC4)C[C@H]3/C=C\CCCCC[C@H](Nc3ccccc3)C(=O)N2C1 [Compound 312] |  | > 8.00 | 7.00 to 8.00
31 | CC(C)n1c(O[C@@H]2C[C@H]3C(=O)N[C@]4(C(=O)NS(=O)(=O)C5(C)CC5)C[C@H]4/C=C\CCCCC[C@H](Nc4ccc(C(F)(F)F)cc4)C(=O)N3C2)nc2cncnc21 [Compound 501] |  | > 8.00 | < 7.00
32 | CC(C)n1c(O[C@@H]2C[C@H]3C(=O)N[C@]4(C(=O)NS(=O)(=O)C5(C)CC5)C[C@H]4/C=C\CCCCC[C@H](Nc4ccc(F)c(C(F)(F)F)c4)C(=O)N3C2)nc2cncnc21 [Compound 502] |  | > 8.00 | 7.00 to 8.00
33 | CC(C)n1c(O[C@@H]2C[C@H]3C(=O)N[C@]4(C(=O)NS(=O)(=O)C5(C)CC5)C[C@H]4/C=C\CCCCC[C@H](Nc4cc(F)cc(C(F)(F)F)c4)C(=O)N3C2)nc2cncnc21 [Compound 503] |  | > 8.00 | 7.00 to 8.00
34 | CC(C)n1c(O[C@@H]2C[C@H]3C(=O)N[C@]4(C(=O)NS(=O)(=O)C5CC5)C[C@H]4/C=C\CCCCC[C@H](NC(=O)OC(C)(C)C)C(=O)N3C2)nc2cncnc21 [Compound 504] |  | > 8.00 | 7.00 to 8.00
35 | CC(C)n1cnc2cnc(O[C@@H]3C[C@H]4C(=O)N[C@]5(C(=O)NS(=O)(=O)C6CC6)C[C@H]5/C=C\CCCCC[C@H](NC(=O)OC(C)(C)C)C(=O)N4C3)nc21 [Compound 505] |  | > 8.00 | < 7.00
36 | CC(C)(C)OC(=O)N[C@H]1CCCCC/C=C\[C@@H]2C[C@@]2(C(=O)NS(=O)(=O)C2CC2)NC(=O)[C@@H]2C[C@@H](Oc3ncc4ncn(Cc5ccccc5)c4n3)CN2C1=O [Compound 506] |  | > 8.00 | < 7.00
37 | CN(C)S(=O)(=O)NC(=O)[C@@]12C[C@H]1/C=C\CCCCC[C@H](NC(=O)OC(C)(C)C)C(=O)N1C[C@H](Oc3ccc4c(ccn4C)c3)C[C@H]1C(=O)N2 [Compound 701] |  | > 8.00 | < 7.00
38 | Cn1ccc2ccc(O[C@@H]3C[C@H]4C(=O)N[C@]5(C(=O)NS(=O)(=O)C6(C)CC6)C[C@H]5/C=C\CCCCC[C@H](NC(=O)OC(C)(C)C)C(=O)N4C3)cc21 [Compound 702] |  | > 8.00 | 7.00 to 8.00
